Experimental data taken from ChEMBL document CHEMBL1201862, “PubChem BioAssay data set” (2004).
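Interpolation was linear, between the two tested concentrations surrounding the appropriate level; five concentrations were tested over 48 hours in 96-well plates. GI50: concentration for 50% inhibition of growth.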 Calls of active or inactive are those of the source. Cut-off read from the data, not from the text of the source: active = GI50 up to about 1.1 µM and inactive = higher.

How the values were obtained:
Assay in all cases: NCI-60 cell line screen, 48 h
[1] = system: HCC 2998
[2] = system: HOP-62
[3] = system: RXF 631
[4] = system: COLO 205
[5] = system: HL-60
[6] = system: SR
[7] = system: A498
[8] = system: SF-268
[9] = system: OVCAR-4
[10] = system: NCI-H522
[11] = system: NCI-H460
[12] = system: SK-OV-3
[13] = system: DLD-1
[14] = system: RPMI-8226
[15] = system: NCI-H226
[16] = system: XF498
[17] = system: NCI-H23
[18] = system: DMS-273
[19] = system: M14
[20] = system: SK-MEL-2
[21] = system: CAKI-1
[22] = system: 786-0
[23] = system: UO-31
[24] = system: SK-MEL-28
[25] = system: HCT-15
[26] = system: CCRF-CEM
[27] = system: IGROV-1
[28] = system: ACHN
[29] = system: SF-539
[30] = system: SNB-75
[31] = system: K562
[32] = system: MOLT-4
[33] = system: HOP-92
[34] = system: DMS-114
[35] = system: LXFL 529
[36] = system: Malme-3M
[37] = system: M19-MEL
[38] = system: UACC-62
[39] = system: HCT-116
[40] = system: SN12C
[41] = system: SW-620
[42] = system: UACC-257
[43] = system: SK-MEL-5
[44] = system: A549
[45] = system: U-251
[46] = system: EKVX
[47] = system: TK-10
[48] = system: OVCAR-8
[49] = system: SNB-78
[50] = system: SF-295
[51] = system: KM12
[52] = system: SNB-19
[53] = system: OVCAR-3
[54] = system: OVCAR-5
[55] = system: KM-20L2
[56] = system: HT-29
[57] = system: LOX IMVI

Measured: GI50

Cc1[nH]c(=O)nc(N(CCO)/N=C/c2ccccc2Cl)c1C(=O)Nc1cc(Cl)cc(Cl)c1
> 100 µM: [25]
inactive: [1] 86.5 µM | [2] 26.5 µM | [3] 29.2 µM | [4] > 100 µM | [5] > 100 µM | [6] 46.1 µM | [7] 24.6 µM | [8] 31.8 µM | [9] 31.6 µM | [10] 23.1 µM | [11] 27.9 µM | [12] 20.4 µM | [13] 53.1 µM | [14] 40.2 µM | [15] 23.1 µM | [16] > 100 µM | [17] 34.9 µM | [18] 43.8 µM | [19] 67.3 µM | [20] 48.9 µM | [21] 45.4 µM | [22] 20.1 µM | [23] 43.4 µM | [24] 36.1 µM | [26] 64.1 µM | [27] > 100 µM | [28] 29.2 µM | [29] 24.5 µM | [30] 17.7 µM | [31] 37.3 µM | [32] 77.3 µM | [33] 23.9 µM | [34] 41.2 µM | [35] 35.2 µM | [36] > 10 µM | [37] > 100 µM | [38] > 100 µM | [39] 23 µM | [40] 43.7 µM

C[Si](C)(C)/C=C\CCCN1C(=O)CCC1=O
inactive: [1] > 100 µM | [3] > 100 µM | [41] > 100 µM | [42] > 100 µM | [4] > 100 µM | [43] 93.8 µM | [5] > 100 µM | [6] > 100 µM | [44] > 100 µM | [45] > 100 µM | [7] > 100 µM | [8] > 100 µM | [10] > 100 µM | [11] > 100 µM | [12] > 100 µM | [14] > 100 µM | [46] > 100 µM | [16] > 100 µM | [17] > 100 µM | [47] > 100 µM | [19] > 100 µM | [20] > 100 µM | [22] > 100 µM | [23] > 100 µM | [48] > 100 µM | [24] > 100 µM | [49] > 100 µM | [26] 64.7 µM | [50] > 100 µM | [51] > 100 µM | [27] > 100 µM | [28] > 100 µM | [29] > 100 µM | [30] 62.5 µM | [52] > 100 µM | [31] 60 µM | [32] > 100 µM | [33] > 100 µM | [34] 71.1 µM | [53] > 100 µM | [54] 86.5 µM | [35] > 100 µM | [36] > 100 µM | [55] > 100 µM | [37] > 100 µM | [56] > 100 µM | [38] > 100 µM | [39] > 100 µM | [40] > 100 µM | [57] > 100 µM
> 100 µM: [25]

O=C1c2ccccc2C(=O)N1C/C=N/NS(=O)(=O)c1ccc(Cl)cc1
> 100 µM: [25]
inactive: [1] > 100 µM | [2] > 100 µM | [3] > 100 µM | [41] > 100 µM | [42] > 100 µM | [4] > 100 µM | [43] > 100 µM | [5] > 100 µM | [6] > 100 µM | [44] > 100 µM | [45] > 100 µM | [7] > 100 µM | [8] > 100 µM | [9] > 100 µM | [10] > 100 µM | [11] > 100 µM | [13] > 100 µM | [14] > 100 µM | [15] 31.7 µM | [46] > 100 µM | [16] > 100 µM | [17] > 100 µM | [18] > 100 µM | [47] > 100 µM | [19] > 100 µM | [20] > 100 µM | [21] > 100 µM | [22] > 100 µM | [23] > 100 µM | [48] > 100 µM | [26] > 100 µM | [50] > 100 µM | [27] > 100 µM | [28] > 100 µM | [29] > 100 µM | [30] 66.1 µM | [52] > 100 µM | [31] > 100 µM | [32] > 100 µM | [34] > 100 µM | [35] > 100 µM | [36] > 100 µM | [55] > 100 µM | [37] > 100 µM | [56] > 100 µM | [38] > 100 µM | [39] > 100 µM | [40] > 100 µM | [57] > 100 µM
